# From US6555113B1, “Modulation of cholesteryl ester transfer protein (CETP) activity” (priority 1995, dated 2003)
# Experiments:
# [1] = target: T1, recombinant human CETP (Homo sapiens, UniProt P11597); settings: in vivo
# [2] = design: species or system New Zealand White Rabbits; settings: rabbit, in vivo
# [3] = target: T1, recombinant human CETP; settings: in vivo; remark: listed apart in the source
# [4] = target: T1, recombinant human CETP; settings: in vivo; remark: listed apart in the source
# [5] = design: species or system New Zealand White Rabbits; settings: rabbit, in vivo; remark: listed apart in the source
# [6] = system: aortic atherosclerotic lesions; assay: Measurement of aortic atherosclerotic lesions in rabbits, cholesterol-fed model of atherosclerosis; format: in vivo, New Zealand White Rabbits
# Description: The synthetic vaccine peptide (SEQ ID NO:2) of Example 1 above was injected into New Zealand White Rabbits to test the ability of the vaccine peptide to elicit an immune response against endogenous rabbit CETP and to protect or reduce development of atherosclerosis. Group I contained six rabbits (rb#1-#6), each of which was subjected to a protocol for administration of the vaccine peptide. Control Group II contained six rabbits (rb#7-12) that were vaccinated but not fed a high cholesterol diet. Control Group III contained six rabbits (rb#13-18) that were not vaccinated and not fed a high cholesterol diet. Control Group IV contained six rabbits (rb#19-24) that were not vaccinated but fed a high cholesterol diet. The high cholesterol diet was administered starting four weeks after a final boost with the vaccine and continued for a total of 17 weeks.
# On Day 0, peptide (100 μg) was suspended in the RIBI™ adjuvant system (RIBI ImmunoChem Research, Inc., Hamilton, Mont.) according to manufacturer's instructions to a final volume of […], and each rabbit of Group I and II were injected at two intramuscular sites (250 μl per site), subcutaneously at two sites (100 μl per site), and six intradermal sites (50 μl per site). On Day 28, a boost (100 μg of peptide in RIBI™ adjuvant system) was administered as on Day 0. On Day 49, another boost (100 μg of peptide in RIBI™ adjuvant system) was administered as on Day 0. […]
# Aortas were removed from all surviving rabbits (four in Groups I and IV, five in Group II, six in Group III) after 17 weeks (Day 196 from primary vaccination) on cholesterol supplemented diet in Groups I and IV and control diet (no cholesterol supplement) in Groups II and III. […] The lesions were measured and the data quantitated using a computer program (The Morphometer, Woods Hole Educational Associated, Woods Hole, Mass.).
# T1 sequence (P11597 18-493): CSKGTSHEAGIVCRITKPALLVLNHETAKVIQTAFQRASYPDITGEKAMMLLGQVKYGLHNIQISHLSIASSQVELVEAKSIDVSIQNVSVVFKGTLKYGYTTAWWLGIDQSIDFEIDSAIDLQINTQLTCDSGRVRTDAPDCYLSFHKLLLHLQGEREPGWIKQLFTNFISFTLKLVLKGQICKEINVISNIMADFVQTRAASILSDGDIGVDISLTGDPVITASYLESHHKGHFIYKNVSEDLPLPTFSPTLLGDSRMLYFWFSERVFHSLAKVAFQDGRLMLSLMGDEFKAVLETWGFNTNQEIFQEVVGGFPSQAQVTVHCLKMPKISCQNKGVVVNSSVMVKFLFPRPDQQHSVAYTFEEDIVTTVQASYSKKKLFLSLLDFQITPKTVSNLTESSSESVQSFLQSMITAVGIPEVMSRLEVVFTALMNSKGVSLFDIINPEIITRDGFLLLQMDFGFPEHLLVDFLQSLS
sequence,measurement,setting,value
CQYIKANSKFIGITEFGFPEHLLVDFLQSLS [SEQ ID NO:2],inhibition of TP2 binding to CETP by plasma,[1],observed in plasma sample from two of the three rabbits
same,increase in HDL-C concentrations compared to prebleed plasma samples,[2],2 to 5 fold
same,plasma HDL concentrations over time,[2],increasing plasma HDL concentrations over time
same,ratio of Non-HDL/HDL,[2],generally declined
same,total cholesterol in plasma samples,[2],no significant difference
same,titers of anti-CETP antibody by direct ELISA,[3],All Group I mice had significant titers
same,anti-CETP antibody that competed with Mab TP2 for binding to recombinant human CETP,[4],three of the six mice
same,levels of HDL-C compared to pre-vaccination levels,[5],showed an increase
same,size of atherosclerotic lesions compared to non-vaccinated animals,"[6]; Group I (vaccinated, cholesterol-supplemented diet) vs Group IV, 17 weeks on 0.25% cholesterol diet",statistically significant reduction
same,average total area of the aorta covered by lesions,"[6]; Group I vaccinated animals, 17 weeks on cholesterol supplemented diet, Oil Red O staining",19%
same,reduction of the area of atherosclerotic lesions,"[6]; animals fed cholesterol supplemented diets, vaccinated vs non-vaccinated",greater than 50%
